Reference: article PMC3913682, “A Monoclonal Antibody TrkB Receptor Agonist as a Potential Therapeutic for Huntington’s Disease” (PLoS ONE, 2014)

How the values were obtained:
[1] = Solubility assay under CellSensor assay conditions (HPLC-UV); format: physicochemical; details: assay buffer, 0.5% DMSO; for Concentration @ t = 0: 0 hours; for Concentration @ t = 3: 3 hours; for Concentration @ t = 7: 7 hours
Procedure: To align with the functional data, all compound samples and dilutions were prepared using the CellSensor® assay conditions that include: assay buffer, plates, sample volumes and the same timeframe. The assay incubation time was 7 hours. 0, 3 and 7 hour samples were analysed, in triplicate, in the final assay buffer (DMEM/Glutamax + NEAA + 20 mM Hepes pH7.4 + 0.01% BSA, final DMSO concentration 0.5%) at nominal compound concentrations of 5, 20 and 50 µM. […] The 7 and 3 hour samples were prepared at times which allowed simultaneous filtering and sample analysis.

TrkB [2] = test system: TrkB; design: method as in PMID 20407211; details: hippocampal neurons; cited from earlier work
TrkB [3] = target: TrkB (Homo sapiens, UniProt Q16620); design: host or cells: CHO-K1; details: cited from earlier work
Sequence of TrkB (Homo sapiens, UniProt Q16620) (Q16620 32-822): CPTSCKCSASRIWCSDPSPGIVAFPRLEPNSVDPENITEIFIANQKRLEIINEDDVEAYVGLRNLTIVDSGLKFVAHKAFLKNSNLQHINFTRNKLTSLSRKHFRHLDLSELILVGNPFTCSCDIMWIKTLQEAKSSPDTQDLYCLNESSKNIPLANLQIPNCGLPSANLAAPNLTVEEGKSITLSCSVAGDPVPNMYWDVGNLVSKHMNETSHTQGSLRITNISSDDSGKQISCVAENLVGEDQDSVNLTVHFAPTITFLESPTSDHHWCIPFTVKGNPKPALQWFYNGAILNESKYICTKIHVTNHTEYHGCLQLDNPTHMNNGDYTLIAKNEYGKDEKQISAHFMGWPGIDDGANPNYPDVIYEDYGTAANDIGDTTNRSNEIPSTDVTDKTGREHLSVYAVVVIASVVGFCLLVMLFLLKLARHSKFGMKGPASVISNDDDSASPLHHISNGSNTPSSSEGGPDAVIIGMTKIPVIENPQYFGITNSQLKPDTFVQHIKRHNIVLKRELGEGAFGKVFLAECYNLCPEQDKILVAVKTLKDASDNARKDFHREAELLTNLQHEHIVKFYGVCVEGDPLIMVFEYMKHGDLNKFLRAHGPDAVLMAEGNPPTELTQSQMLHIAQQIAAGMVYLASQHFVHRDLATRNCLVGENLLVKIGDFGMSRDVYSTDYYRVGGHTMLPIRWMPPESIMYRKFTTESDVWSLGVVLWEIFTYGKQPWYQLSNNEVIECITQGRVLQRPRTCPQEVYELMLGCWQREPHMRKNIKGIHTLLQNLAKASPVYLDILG

striatal neurons = experiment: Primary neuronal mHTT-induced cell death assay (cortico-striatal co-culture); format: cell-based, rat; details: Figure 7A
From the text: Cortical and striatal neurons were isolated from E18 rat embryos and separately transfected with a HTT exon1 fragment containing 73 CAG repeats (HTTN90Q73), together with a plasmid encoding for either a green AcGFP or a red AsRed fluorescent reporter before being plated on glial cells and treated with candidate pharmacological agents. After 5 days in culture, the number of fluorescent cells remaining was counted using an automated high content imaging and analysis platform (GE Healthcare InCell 2000) and any changes in neuronal survival quantified.

TrkB phosphorylation = experiment: Western blot of TrkB phosphorylation in rat primary cortico-striatal co-cultures; format: cell-based; details: 15 minutes; non-transfected; Figure 7B, C
From the text: (§1) Clarified cell lysates were resolved by SDS-PAGE, blotted onto nitrocellulose membranes and immunoprobed with the relevant primary and secondary antibody combinations. Anti-pTrkB Tyr^516 (4619), anti-pTrkB Tyr^706/707 (4621), anti-pTrkB, Tyr^816 (4168), anti-pERK1/2 […], anti-pAKT […], anti-TrkB (4603), anti-AKT (4685) and anti-ERK1/2 (4695) were sourced from Cell Signalling Technologies. Anti-GAPDH (IMG-5143A) was obtained from Imgenex; Goat anti-rabbit HRP conjugate (PO448) and Goat anti-mouse HRP conjugate (PO447) were sourced from Dako. Goat anti-mouse 800CW conjugate and Goat anti-rabbit 680 conjugate were sourced from LI-COR. Immunoreactive signals were detected using enhanced chemiluminescence reagent (Amersham) or using the Odyssey infra-red reader.

[4] = test system: TrkB, AKT and ERK1/2 phosphorylation; experiment: Western blot of TrkB, AKT and ERK1/2 phosphorylation in TrkB-NFAT-bla CHO-K1 cells; format: cell-based; details: LM22A-4 at low (10 µM) and high (83 µM), N-acetyl serotonin at high (83 µM) concentration; Figure 6E
From the text: as §1

O=C(NCCO)c1cc(C(=O)NCCO)cc(C(=O)NCCO)c1 [LM22A-4]
Concentration @ t = 0 ([1]; nominal concentration 5 µM): 7.2 µM | Concentration @ t = 3 ([1]; nominal concentration 5 µM): 7.8 µM | Concentration @ t = 7 ([1]; nominal concentration 5 µM): 11 µM | Concentration @ t = 0 ([1]; nominal concentration 20 µM): 17 µM | Concentration @ t = 3 ([1]; nominal concentration 20 µM): 17 µM | Concentration @ t = 7 ([1]; nominal concentration 20 µM): 20 µM | Concentration @ t = 0 ([1]; nominal concentration 50 µM): 59 µM | Concentration @ t = 3 ([1]; nominal concentration 50 µM): 58 µM | Concentration @ t = 7 ([1]; nominal concentration 50 µM): 64 µM | Induction of TrkB-Tyr516 phosphorylation (TrkB [2]): ~30 % of the efficacy of BDNF | Published in vitro activity (in words) (TrkB [3]): TrkB agonist; Neuroprotective | Published in vitro activity: Activity (TrkB [3]): 0.5 to 500 nM | Protection of striatal neurons from mHTT-induced cell death (in words) (striatal neurons): failed to mimic the ability of BDNF | Induction of TrkB phosphorylation (in words) (TrkB phosphorylation): failed to mimic the ability of BDNF | Basal phospho-ERK1/2 immunoreactive bands [4]: absence of immunoreactive bands
